# Test results published in US20260265754A1, “CHK1-TARGETING SIRNAS CHEMICALLY MODIFIED WITH GEMCITABINE” (Sirnaomics, Inc., priority 2024, published 2026).
# Where a name gives a salt, the structure may show the parent alone. d = 2'-deoxy (DNA); m = 2'-O-methyl; f = 2'-fluoro
# Assays:
# [1] = test system: MiaPaCa-2 (pancreatic cancer) cells; assay: Cell viability assay (CellTiter-Glo), lipofectamine transfection, MiaPaCa-2; assay type: cell-based; conditions: for Activity/efficacy in reducing cell viability: MiaPaCa-2 cells, FIG. 1; for Improvement of dose response over gemcitabine alone: MiaPaca2 cells
# Description: All cell lines were obtained from ATCC (Rockville, MD). Cells were cultured in standard media supplemented with 10% FBS: Panc 10.05, H1299 and H358 in RPMI-1640 Medium, MiaPaCa-2, HT29 and MDA-MB-231 in DMEM, LS180 in EMEM. All media were obtained from ATCC (Rockville, MD). Cells were seeded in 384-well plates at a density of 0.3×10^3 to 1×10^3 cells/well. On the next day, cells were treated with serially diluted gemcitabine or siRNAs delivered by Lipofectamine RNAiMAX (Life Technologies, Carlsbad, CA). Ninety-six (96) hours after addition of gemcitabine or transfection reagent, the number of viable cells was determined using CellTiter-Glo(R)-2.0 reagent (Promega, Madison, WI) by measuring luminescent signal on a Cytation 5 plate reader (BioTek Inc, Winooski, VT). All values were compared to values generated for cells treated with non-silencing (NS) siRNA or to non-treated control and reported as the percentage cell viability. Values represent the mean±SD (n=4). All values were normalized to values generated for cells treated with a non-silencing siRNA and reported as the percentage cell viability. Calculation ofEC50 values. The EC50 values of the Gemcitabine, or Gemcitabine-modified siRNAs, (half-maximal effective concentration) were derived from a sigmoidal dose-response (variable slope) curve using GraphPad Prism 10.0.2(232) software (GraphPad Software, San Diego, Ca). Combination index (CI) calculation. […] CI=([…])2, where (Dx)1 and (Dx)2 are the doses of drug 1 and drug 2, alone, inhibiting 50%, whereas (D1) is the dose of drug 1 in combination, and (D2) the dose of drug 2 in combination that gives the experimentally observed 50% inhibition. These siRNA constructs were tested for their ability to reduce viability of pancreatic cancer using Miapaca2 cells after lipofectamine transfection of the siRNAs at varying concentrations. All of the constructs could inhibit the viability of these cells by 100% at concentrations below 100 nM. The contribution of the gemcitabine within the constructs was studied by making and evaluating constructs lacking the gemcitabine.
# [2] = PNP particle size and zeta potential by dynamic light scattering; assay type: physicochemical; set-up: Nanoparticle size: unit not given here; conditions: for Nanoparticle size: siRNA formulated with HKP(+H), dynamic light scattering
# Description: To test the efficacy of the products in vivo siRNAs (non-silencing siRNA (Control; NS), and PGN6) were formulated with a branched histidine lysine polymer (HKP (+H)) to form peptide nanoparticle (PNP) formulations were prepared using a microfluidic mixing system with a staggered herringbone patterned mixer (Precision NanoSystems, Vancouver, BC, Canada). HKP(+H) stock was prepared in water and diluted to appropriate concentrations. PolyGem siRNA or non-silencing (NS) siRNA stocks were prepared in water. The HKP(+H) and siRNA were mixed at a volume ratio of 1:1 at 8-10 mL/min total flow rate. Formulations were incubated for 30 min at room temperature. Particle size and zeta potential were then determined by dynamic light scattering with a Zetasizer Ultra (Malvern Panalytical, MA). A gel retardation assay was used to evaluate the efficiency of complex formation. Briefly, pre-formed PNPs were mixed with RNA loading dye and applied to 2% agarose gel. The gel was run in 0.5×TBE for 15 min. Electrophoretic mobility of the siRNA-nanoparticles was analyzed on a gel imaging system.
# MDA-MB-231 (TNBC) cells = assay: Cell viability assay (CellTiter-Glo), lipofectamine transfection, MDA-MB-231; assay type: cell-based; conditions: MDA-MB-231 cells, FIG. 2K
# Description: (§1) All cell lines were obtained from ATCC (Rockville, MD). Cells were cultured in standard media supplemented with 10% FBS: Panc 10.05, H1299 and H358 in RPMI-1640 Medium, MiaPaCa-2, HT29 and MDA-MB-231 in DMEM, LS180 in EMEM. All media were obtained from ATCC (Rockville, MD). Cells were seeded in 384-well plates at a density of 0.3×10^3 to 1×10^3 cells/well. On the next day, cells were treated with serially diluted gemcitabine or siRNAs delivered by Lipofectamine RNAiMAX (Life Technologies, Carlsbad, CA). Ninety-six (96) hours after addition of gemcitabine or transfection reagent, the number of viable cells was determined using CellTiter-Glo(R)-2.0 reagent (Promega, Madison, WI) by measuring luminescent signal on a Cytation 5 plate reader (BioTek Inc, Winooski, VT). All values were compared to values generated for cells treated with non-silencing (NS) siRNA or to non-treated control and reported as the percentage cell viability. Values represent the mean±SD (n=4). All values were normalized to values generated for cells treated with a non-silencing siRNA and reported as the percentage cell viability. Calculation ofEC50 values. The EC50 values of the Gemcitabine, or Gemcitabine-modified siRNAs, (half-maximal effective concentration) were derived from a sigmoidal dose-response (variable slope) curve using GraphPad Prism 10.0.2(232) software (GraphPad Software, San Diego, Ca).
# [3] = test system: OVCAR-3 (ovarian cancer) cells; assay: Cell viability assay, lipofectamine transfection, OVCAR-3; assay type: cell-based; conditions: OVCAR-3 cells, FIG. 2L
# Description: as §1, with “Cells” for “All cell lines were obtained from ATCC (Rockville, MD). Cells were cultured in standard media supplemented with 10% FBS: Panc 10.05, H1299 and H358 in RPMI-1640 Medium, MiaPaCa-2, HT29 and MDA-MB-231 in DMEM, LS180 in EMEM. All media were obtained from ATCC (Rockville, MD). Cells”
# H1299 (KRAS wt) cells = assay: Cell viability assay (CellTiter-Glo), lipofectamine transfection, H1299; assay type: cell-based
# Description: (§2) All cell lines were obtained from ATCC (Rockville, MD). Cells were cultured in standard media supplemented with 10% FBS: Panc 10.05, H1299 and H358 in RPMI-1640 Medium, MiaPaCa-2, HT29 and MDA-MB-231 in DMEM, LS180 in EMEM. All media were obtained from ATCC (Rockville, MD).
# (§3) Cells were seeded in 384-well plates at a density of 0.3×10^3 to 1×10^3 cells/well. On the next day, cells were treated with serially diluted gemcitabine or siRNAs delivered by Lipofectamine RNAiMAX (Life Technologies, Carlsbad, CA). Ninety-six (96) hours after addition of gemcitabine or transfection reagent, the number of viable cells was determined using CellTiter-Glo(R)-2.0 reagent (Promega, Madison, WI) by measuring luminescent signal on a Cytation 5 plate reader (BioTek Inc, Winooski, VT). All values were compared to values generated for cells treated with non-silencing (NS) siRNA or to non-treated control and reported as the percentage cell viability. Values represent the mean±SD (n=4). All values were normalized to values generated for cells treated with a non-silencing siRNA and reported as the percentage cell viability.
# (§4) Calculation ofEC50 values. The EC50 values of the Gemcitabine, or Gemcitabine-modified siRNAs, (half-maximal effective concentration) were derived from a sigmoidal dose-response (variable slope) curve using GraphPad Prism 10.0.2(232) software (GraphPad Software, San Diego, Ca). […]
# H2030 (G12C) cells = assay: Cell viability assay, H2030; assay type: cell-based
# Description: as §1, with “Cells” for “All cell lines were obtained from ATCC (Rockville, MD). Cells were cultured in standard media supplemented with 10% FBS: Panc 10.05, H1299 and H358 in RPMI-1640 Medium, MiaPaCa-2, HT29 and MDA-MB-231 in DMEM, LS180 in EMEM. All media were obtained from ATCC (Rockville, MD). Cells”
# H358 cells (KRAS G12C) = assay: Cell viability assay (CellTiter-Glo), lipofectamine transfection, H358; assay type: cell-based
# Description: as §2, §3, §4
# A549 (G12S) cells = assay: Cell viability assay, A549; assay type: cell-based
# Description: as §1, with “Cells” for “All cell lines were obtained from ATCC (Rockville, MD). Cells were cultured in standard media supplemented with 10% FBS: Panc 10.05, H1299 and H358 in RPMI-1640 Medium, MiaPaCa-2, HT29 and MDA-MB-231 in DMEM, LS180 in EMEM. All media were obtained from ATCC (Rockville, MD). Cells”
molecule,measurement,setting,value
"Nc1ccn([C@@H]2O[C@H](CO)[C@@H](O)C2(F)F)c(=O)n1 [gemcitabine, 2′-deoxy-2′,2′-difluorocytidine monohydrochloride]",IC50,"[1]; Homo sapiens, MIA PaCa-2, MiaPaca-2 cells, 96 h, free gemcitabine or siRNA by lipofectamine",> 10 nM
"Non-Silencing: Non-silencing siRNA control; SEQ ID Nos. 1-2 (chain 1 CGAGCAGGGUAUCGACGAUUACAAA; chain 2 UUUGUAAUCGUCGAUACCCUGCUCG; RNA, backbone not given here; listed as Homo sapiens) [reference compound]",Nanoparticle size,[2],82.6
"PGN6 (no Gem): Modified Chk1 siRNA as PGN6 lacking gemcitabine; SEQ ID Nos. 7-8 (chain 1 AAGAAAGAGAUCUGUAUCAAU; chain 2 AUUGAUACAGAUCUCUUUCUUTT; chain 1: sugars from the 5' end mmmmmmfmffffmmmmmfmmm, backbone not given here; chain 2: sugars from the 5' end mfmmmfmmmmmmmfmffffffdd, backbone not given here; further chemistry not fully specified)",Activity/efficacy in reducing cell viability,[1],did not show good efficacy at higher concentrations
"PGN6: Chk1-targeting siRNA, 2′OMe/2′-fluoro modified, four gemcitabine nucleosides; SEQ ID Nos. 3-4 (chain 1 AAGAAAGAGAUUCGUAUCAAU; chain 2 AUUGAUACAGAUCUCUUUCUUCCUU; 2'-OMe/2'-F modified, four gemcitabine nucleosides, full pattern not given here)",Activity/efficacy in reducing cell viability,MDA-MB-231 (TNBC) cells,greater potency
same,Zeta potential,[2]; siRNA formulated in HKP(+H),35.8 mV
same,Nanoparticle size,[2],86.7
same,Improvement of dose response over gemcitabine alone,[1],100 fold
same,Activity/efficacy in reducing cell viability,[3],greater potency
"PGN7 (no Gem): Modified Chk1 siRNA as PGN7 lacking gemcitabine; SEQ ID Nos. 9-10 (chain 1 AAGAAAGAGAUCUGUAUCAAU; chain 2 AUUGAUACAGAUCUCUUUCUUTT; chain 1: sugars from the 5' end mmmmmmfmfffffmfmffmmf, backbone not given here; chain 2: sugars from the 5' end mfmmmfmmmmmfmfmfmfmfmdd, backbone not given here; further chemistry not fully specified)",Activity/efficacy in reducing cell viability,[1],did not show good efficacy at higher concentrations
"PGN7: Chk1-targeting siRNA, 2′OMe/2′-fluoro modified, four gemcitabine nucleosides; SEQ ID Nos. 5-6 (chain 1 AAGAAAGAGAUCUGUAUCAAU; chain 2 AUUGAUACAGAUCUCUUUCUUCCUU; 2'-OMe/2'-F modified, four gemcitabine nucleosides, full pattern not given here)",IC50,H1299 (KRAS wt) cells,~6 nM
same,Activity/efficacy in reducing cell viability,MDA-MB-231 (TNBC) cells,greater potency
same,IC50,H2030 (G12C) cells,3 nM
same,IC50,H358 cells (KRAS G12C),~1 nM
same,IC50,A549 (G12S) cells,~6 nM
same,Improvement of dose response over gemcitabine alone,[1],100 fold
same,Activity/efficacy in reducing cell viability,[3],greater potency
PGN7S (sense AAGAAAGAGAUCUGUAUCAAU; antisense AUUGAUACAGAUCUCUUUCUUCCDUDU; gemcitabine nucleotides; phosphorothioates; 5' LS on antisense; modified_base 1 OTHER; 2'-O-methyl adenosine; modified_base 9 OTHER; 2'-fluoro-guanosine; modified_base 15 OTHER; 2'-fluorouracil; modified_base 21 OTHER; modified_base 16 OTHER; modified_base 6 OTHER; modified_base 17 OTHER; modified_base 19 OTHER; modified_base 5 OTHER; m; modified_base 3 um; modified_base 4 gm; modified_base 7 OTHER; 2),Activity/efficacy in reducing cell viability,[1],weaker activity than either PGN6 or PGN7
